Key:
[1] = system: human perivascular stem cells; test: Boyden chamber chemotaxis of human perivascular stem cells; format: cell-based; conditions: Neuro Probe 48-well chamber, 3 hours, varying concentrations
Experimental: To confirm the chemotactic activity for progenitor cells within ECM degradation products, human perivascular stem cells were assessed in vitro in a Boyden chamber. The peptides IAGVGGEKSGGF (Peptide 1, SEQ ID NO: 1) and GPVGPSGPPGK (Peptide 2, SEQ ID NO: 2) were tested.
Perivascular stem cells were isolated from human muscle and propagated in culture as previously described (Crisan M, Yap S, Casteilla L, et al. A perivascular origin for mesenchymal stem cells in multiple human organs. Cell Stem Cell. 2008; 3:301-313).
Perivascular stem cells were cultured in Dulbecco's Modified Eagle's Medium (DMEM) supplemented with 20% fetal calf serum (FCS), 2 mM glutamine, 100 U/ml penicillin, and 100 μg/ml streptomycin in […] at 37° C.
Cultures at passages 10-12 and 50-70% confluence were starved in serum-free DMEM supplemented with 0.5% heat inactivated (FCS) for 14-17 hours. After starvation, cells were harvested in 0.25% trypsin and 0.53 mM EDTA, centrifuged, and resuspended in DMEM with 0.5% heat inactivated FCS at a concentration of 6×10^5 cells/ml for 1 hour. […] After 3 hours, cells facing the upper chamber on the filter were scraped off, and cells facing the bottom filter were fixed in methanol, stained with 500 nM DAPI (Sigma, D9564), and counted using ImageJ (NIH).

[2] = system: C57/BL6 mice, amputated third digit; test: Animal model of digit amputation (in vivo bone formation); parameters: species or system mouse
Experimental: Animal Model of Digit Amputation: Adult female 6- to 8-week-old C57/BL6 mice (n=4) were subjected to aseptic midsecond phalanx amputation of the third digit on both hind feet. At 0, 24, and 96 h after surgery 15 μL of 10 mM peptide 1 was injected into the footpad below the amputated digit using a 30-gauge needle. A second group of animals (n=4) were treated in the same way except that phosphate buffered saline (PBS) was injected instead of the peptide Animals were killed via cervical dislocation under isoflurane anesthesia at 14 days after surgery. Isolated toes were fixed in 10% neutral buffered formalin (NBF), embedded in paraffin and cut into 5 μm sections, before deparaffinization and staining with Alcian blue at pH 2.5, hematoxylin and eosin (H&E) or Masson's trichrome.

[3] = system: human perivascular stem cells; test: Human perivascular stem cells osteogenic differentiation; format: cell-based
Experimental: (§1) Source of Cells and Culture Conditions: Human perivascular stem cells were obtained as described above and were cultured in high-glucose Dulbecco's modified Eagle's medium (DMEM, Invitrogen) containing 20% fetal bovine serum (FBS; Thermo), 100 U/mL penicillin, and 100 μg/mL streptomycin (Sigma) at 37° C. in 5% CO2. Human cortical neuroepithelium stem (CTX) cells were cultured in DMEM:F12 supplemented with 0.03% Human albumin solution, 100 μg/ml human Apo-Transferrin, 16.2 μg/ml Putrescine DiHCl, 5 μg/ml Insulin, 60 ng/ml Progesterone, 2 mM L-Glutamine, 40 ng/ml Sodium Selinite, 10 ng/ml human bFGF, 20 ng/ml human Epidermal growth factor, and 100 nM 4-Hydroxytestosterone.
Human Perivascular Stem Cells Osteogenic Differentiation: Confluent perivascular stem cells were cultured in osteogenic differentiation medium (DMEM with 20% FBS, 20 μM ascorbic acid and 1.76 mM β-glycophosphate) and analyzed for the presence of calcium deposits after 4, 7, and 14 days. Calcium deposits were detected via fixation in 10% NBF and staining with 2% Alizarin Red.

[4] = system: human cortical neuroepithelium stem (CTX) cells; test: CTX cells chemotaxis assay; format: cell-based; conditions: 5 h
Experimental: as §1
CTX Cells Chemotaxis Assay: CTX cells (human cortical neuroepithelium stem cells) were grown to ˜80% confluence, made into a single cell suspension, and the migration of 3×10^4 cells per well towards peptide 1 was assayed over 5 h. Migrated cells were stained by 4′,6-diamidino-2-phenylindole and quantified with ImageJ (NIH). All of the data are means of quadruplicate determinations with standard deviations. The assay was performed on three separate occasions.

Sequence	Chemotactic activity for progenitor cells [1]	In vivo bone formation at the amputated digit ([2]; 15 μL of 10 mM peptide injected into footpad at 0, 24, 96 h, tissue at 14 days, H&E/trichrome, vs buffer)	Alcian blue staining of sulfated glycosaminoglycans (GAG) ([2]; 15 μL of 10 mM peptide into footpad, 14 days, buffer group showed diffuse GAG staining)	Bone nodules in standard culture medium ([3]; 100 μM peptide, not seen without peptide)	Bone nodules in osteogenic differentiation medium ([3]; 1, 10 or 100 μM peptide, vs differentiation medium alone)	Migration of CTX cells compared to media without peptide ([4]; all concentrations of peptide, 3×10^4 cells per well)	Peptide concentration at which CTX cell migration was highest ([4]; range of concentrations) [µM]
GPVGPSGPPGK (listed as Sus scrofa) [Peptide 2, 11-mer from porcine Collagen type III alpha 1, found in pepsin-digested UBM, chemically synthesized]	excellent chemotactic activity						
IAGVGGEKSGGF (listed as Sus scrofa) [Peptide 1, 12-mer from porcine Collagen type III alpha 1, found in pepsin-digested UBM, chemically synthesized]	excellent chemotactic activity	formation of a bone like growth on the side of the amputated digit	concentrated GAG positive staining only at the bone nodule	caused the formation of bone nodules	more bone nodules	increased migration	1

Reference: patent US8716438B2, “Matricryptic ECM peptides for tissue reconstruction” (University of Pittsburgh—Of the Commonwealth System of …, priority 2009, dated 2014)
